Results reported in ChEMBL document CHEMBL5247633, “Discovery of novel analogs of KHS101 as transforming acidic coiled coil containing protein 3 (TACC3) inhibitors for the treatment of glioblastoma” (Eur J Med Chem, 2022).
Each block holds one compound with its values, some of them ahead of it. Calls of active or inactive are those of the source. The calls are words filed in the database; no cut-off is given here.

Experiments:
SK-OV-3 = test: Antiproliferative activity against human SK-OV-3 cells assessed as cell growth inhibition measured after 72 hrs by MTT assay; format: functional, cell-based; conditions: SK-OV-3, 72 h
[1] = Antiproliferative activity against human HLF1 cells assessed as cell growth inhibition measured after 72 hrs by MTT assay; format: functional, cell-based; conditions: HLF1, 72 h
[2] = Cytotoxicity against human U251 cells assessed as inhibition of cell growth measured after 72 hrs by MTT assay; format: toxicity, cell-based, U-251
JIMT-1 = test: Antiproliferative activity against human JIMT-1 cells assessed as cell growth inhibition measured after 72 hrs by MTT assay; format: functional, cell-based; conditions: JIMT-1, 72 h
MDA-MB-231 = test: Antiproliferative activity against human MDA-MB-231 cells assessed as cell growth inhibition measured after 72 hrs by MTT assay; format: functional, cell-based; conditions: MDA-MB-231, 72 h
[3] = Antiproliferative activity against human U87 cells assessed as inhibition of cell growth incubated for 72 hrs by MTT assay; format: functional, cell-based, U-87MG ATCC; conditions: U-87 MG
[4] = Inhibition of cell invasion in human U87 cells assessed as reduction in number of cells invaded at 2 uM incubated for 24 hrs by matrigel-coated transwell assay (reference value: 154.3%); format: functional, U-87MG ATCC
[5] = Induction of ROS generation in human U87 cells at 4 uM incubated for 36 hrs by DCF-DA based flow cytometry analysis relative to control (Rvb= 4.01 %); format: functional, U-87MG ATCC
[6] = biological target: Transforming acidic coiled-coil-containing protein 3 (Homo sapiens) (UniProt Q9Y6A5); test: Inhibition of TACC3 in human U87 cells assessed as stabilization of protein by measuring shift in thermal melting curve at 10 uM in presence of pronase incubated for 6 hrs by cellular thermal shift assay; format: cell-based
[7] = biological target: Transforming acidic coiled-coil-containing protein 3 (Homo sapiens) (UniProt Q9Y6A5); test: Inhibition of TACC3 in human U87 cells assessed as stabilization of protein by measuring shift in thermal melting curve at 10 uM incubated for 6 hrs by cellular thermal shift assay; format: cell-based
[8] = Induction of mitochondrial membrane potential loss in human U87 cells assessed as increase in green fluorescence intensity at 0 to 4 uM incubated for 36 hrs by JC-1 staining based flow cytometry relative to control (reference value: 9.34 %); format: functional, U-87MG ATCC; conditions: dose 0-4 µM
[9] = Stability in human plasma assessed as half life; format: ADME, cell-free
U-87MG ATCC [10] = test: Inhibition of cell migration in human U87 cells assessed as reduction in cell migration incubated for 24 hrs by wound healing assay; format: functional, cell-based
U-87MG ATCC [11] = test: Antitumor activity against human U87 cells xenografted in BALB/c mouse model assessed as tumor growth regression at 20 mg/kg, iv measured on day 20; format: functional, organism-based
U-87MG ATCC [12] = test: Induction of apoptosis in human U87 cells by AnnexinV/PI staining assay; format: functional, cell-based; conditions: dose 1-4 µM
U-87MG ATCC [13] = test: Induction of ROS generation in human U87 cells at incubated for 36 hrs by DCF-DA based flow cytometry analysis; format: functional, cell-based; conditions: dose 1-4 µM
U-87MG ATCC [14] = test: Induction of cell cycle arrest in human U87 cells assessed as increase in accumulation at G2/M phase at 2 uM after 24 hrs by propidium iodide staining based flow cytometric analysis; format: functional
[15] = Stability in mouse plasma assessed as half life; format: ADME, cell-free
[16] = Induction of cell cycle arrest in shRNA induced in human U87 cells assessed as accumulation at G2/M phase at 1 to 4 uM by propidium iodide staining based flow cytometric analysis relative to control (reference value: 14.95 %); format: functional, U-87MG ATCC; conditions: dose 1-4 µM
[17] = Inhibition of cell invasion in human U87 cells assessed as reduction in number of cells invaded at 4 uM incubated for 24 hrs by matrigel-coated transwell assay (reference value: 154.3%); format: functional, U-87MG ATCC
U-87MG ATCC [18] = test: Antiproliferative activity against shRNA mediated TACC3 knockdown human U87 cells assessed as reduction in cell viability; format: functional, cell-based
U-87MG ATCC [19] = test: Induction of apoptosis in human U87 cells assessed as increase in number of apoptotic cells by Hoechst 33258 staining method; format: functional, cell-based
[20] = Cytotoxicity against human U87 cells assessed as reduction in cell viability measured after 24 hrs by MTT assay; format: toxicity, cell-based, U-87MG ATCC
[21] = Induction of cell cycle arrest in human U87 cells assessed as decrease in accumulation at G1 phase at 4 uM after 36 hrs by propidium iodide staining based flow cytometric analysis relative to control (reference value: 51.7 %); format: functional, U-87MG ATCC; design: scale not given: the % may be the effect or the level left
[22] = Toxicity in BALB/c mouse transplanted with human U87 cells assessed as effect in body weight at 20 mg/kg, iv; format: organism-based, U-87MG ATCC; conditions: in vivo
[23] = Induction of apoptosis in human U87 cells assessed as late apoptosis at 4 uM incubated for 36 hrs by AnnexinV/propidium iodide staining based flow cytometry method relative to control (reference value: 0.52 %); format: functional, U-87MG ATCC
U-87MG ATCC [24] = test: Antitumor activity against human U87 cells xenografted in BALB/c mouse model assessed as increase in apoptotic cells at 20 mg/kg, iv by TUNEL assay; format: functional, organism-based
U-87MG ATCC [25] = test: Antitumor activity against human U87 cells xenografted in BALB/c mouse model assessed as decrease in Ki67 positive cells at 20 mg/kg, iv; format: functional, organism-based
[26] = Antitumor activity against human U87 cells xenografted in BALB/c mouse model assessed as reduction in tumor weight at 20 mg/kg, iv measured on day 20; format: functional, U-87MG ATCC; design: scale not given: the % may be the effect or the level left
[27] = Induction of apoptosis in human U87 cells assessed as early apoptosis at 4 uM incubated for 36 hrs by AnnexinV/propidium iodide staining based flow cytometry method relative to control (reference value: 4.49 %); format: functional, U-87MG ATCC
[28] = Inhibition of cell invasion in human U87 cells assessed as reduction in number of cells invaded at 1 uM incubated for 24 hrs by matrigel-coated transwell assay (reference value: 154.3%); format: functional, U-87MG ATCC
[29] = Induction of cell cycle arrest in human U87 cells assessed as increase in accumulation at G2/M phase at 4 uM after 36 hrs by propidium iodide staining based flow cytometric analysis relative to control (reference value: 15.3 %); format: functional, U-87MG ATCC

Structure (SMILES): CCCN(CCC)c1ccnc(NCc2csc(-c3ccccc3)n2)n1
IC50 (SK-OV-3): 22.2 µM | IC50 [1]: 46.9 µM | IC50 at 72 h [2]: 16.2 µM | IC50 (JIMT-1): 16.9 µM | IC50 (MDA-MB-231): 23.2 µM | IC50 [3]: 16.4 µM

Structure (SMILES): c1ccc(-c2nc(CNc3nccc(NC4CC4)n3)cs2)cc1
IC50 (SK-OV-3): 52.5 µM | IC50 [1]: > 100 µM | IC50 at 72 h [2]: 59.5 µM | IC50 (JIMT-1): 68.8 µM | IC50 (MDA-MB-231): > 100 µM | IC50 [3]: 72.3 µM

Structure (SMILES): CC(C)CNc1ccnc(NCc2csc(-c3ccccc3)c2)n1
IC50 (SK-OV-3): 26.2 µM | IC50 [1]: 61.2 µM | IC50 at 72 h [2]: 25.8 µM | IC50 (JIMT-1): 42.2 µM | IC50 (MDA-MB-231): 27.4 µM | IC50 [3]: 30.7 µM

Structure (SMILES): CC(C)CNc1cccc(NCc2csc(-c3ccccc3)n2)c1
IC50 at 72 h [2]: > 100 µM | IC50 [3]: > 100 µM

Structure (SMILES): c1ccc(-c2nc(CNc3nccc(N4CCC4)n3)cs2)cc1
IC50 (SK-OV-3): 33.3 µM | IC50 [1]: 91.1 µM | IC50 at 72 h [2]: 29.2 µM | IC50 (JIMT-1): 25.7 µM | IC50 (MDA-MB-231): 27.7 µM | IC50 [3]: 21.5 µM

Structure (SMILES): CC(C)CNc1ccnc(NCc2csc(-c3ccc(Cl)cc3)n2)n1
IC50 (SK-OV-3): 34.1 µM | IC50 [1]: 56.3 µM | IC50 at 72 h [2]: 18.5 µM | IC50 (JIMT-1): 26.9 µM | IC50 (MDA-MB-231): 18.3 µM | IC50 [3]: 16.6 µM

Structure (SMILES): CC(C)CNc1ccnc(NC(=O)c2csc(-c3ccccc3)n2)n1
IC50 (SK-OV-3): 83.5 µM | IC50 at 72 h [2]: 92.1 µM | IC50 (JIMT-1): > 100 µM | IC50 (MDA-MB-231): > 100 µM | IC50 [3]: 59.1 µM

Structure (SMILES): c1ccc(-c2nc(CNc3ncccn3)cs2)cc1
IC50 at 72 h [2]: > 100 µM | IC50 [3]: > 100 µM

Structure (SMILES): CC(C)CNc1ccnc(NCc2csc(-c3ccc(C(F)(F)F)cc3)n2)n1
IC50 (SK-OV-3): 39 µM | IC50 [1]: 65.3 µM | IC50 at 72 h [2]: 29.8 µM | IC50 (JIMT-1): 38 µM | IC50 (MDA-MB-231): 33 µM | IC50 [3]: 20.1 µM

Further lines, with some results ahead:

IC50 (SK-OV-3): 0.19 µM | IC50 (MDA-MB-231): 0.32 µM
Structure (SMILES): COc1cccc2c1C(=O)c1c(O)c3c(c(O)c1C2=O)C[C@@](O)(C(=O)CO)C[C@@H]3O[C@H]1C[C@H](N)[C@H](O)[C@H](C)O1 [DOXORUBICIN]
IC50 [1]: 0.23 µM | IC50 at 72 h [2]: 0.45 µM | IC50 (JIMT-1): 0.37 µM | IC50 [3]: 0.25 µM

IC50 (SK-OV-3): 20.2 µM | IC50 (MDA-MB-231): 18.3 µM
Structure (SMILES): c1ccc(-c2nc(CNc3nccc(N4CCCC4)n3)cs2)cc1
IC50 [1]: 61.8 µM | IC50 at 72 h [2]: 17.4 µM | IC50 (JIMT-1): 29.6 µM | IC50 [3]: 26.2 µM

IC50 (SK-OV-3): 21.4 µM | IC50 (MDA-MB-231): 31.1 µM
Structure (SMILES): CC(C)CNc1ccnc(NCc2csc(-c3ccccc3)n2)n1
IC50 [1]: 89.4 µM | IC50 at 72 h [2]: 49.1 µM | IC50 (JIMT-1): 33 µM | IC50 [3]: 37.9 µM

IC50 (SK-OV-3): 8.21 µM | inhibition [6]: Active | inhibition [7]: Active | half-life [9]: 4.2 h | IC50 (MDA-MB-231): 6.46 µM | half-life [15]: 2.1 h
Structure (SMILES): OC1CC2CC1CN2c1ccnc(NCc2csc(-c3ccccc3)n2)n1 (stereo not drawn)
Activity [4]: 73 | Activity [5]: 54.28% | IC50 [1]: 23.1 µM | Activity [8]: 48.58% | inhibition (U-87MG ATCC [10]): Active | Activity (U-87MG ATCC [11]): Active | Activity (U-87MG ATCC [12]): Dose-Dependent Effect | IC50 at 72 h [2]: 5.61 µM | Activity (U-87MG ATCC [13]): Dose-Dependent Effect | Activity (U-87MG ATCC [14]): Active | IC50 (JIMT-1): 4.84 µM | Activity [16]: 21.31% | Activity [17]: 42.3 | IC50 [3]: 3.29 µM | Activity (U-87MG ATCC [18]): Active | Activity (U-87MG ATCC [19]): Active | IC50 at 24 h [20]: 27.5 µM | Activity [21]: 74.6% | Activity [22]: Non-Toxic | Activity [23]: 26.72% | Activity (U-87MG ATCC [24]): Active | Activity (U-87MG ATCC [25]): Active | Activity [26]: 72.7% | Activity [27]: 21.42% | Activity [28]: 119.7 | Activity [29]: 41.2%

IC50 (SK-OV-3): 21.3 µM | IC50 (MDA-MB-231): 21.7 µM
Structure (SMILES): CCCCN(CCCC)c1ccnc(NCc2csc(-c3ccccc3)n2)n1
IC50 [1]: 35.4 µM | IC50 at 72 h [2]: 14.2 µM | IC50 (JIMT-1): 13.2 µM | IC50 [3]: 14.8 µM

IC50 (SK-OV-3): 12.5 µM | IC50 (MDA-MB-231): 18.4 µM
Structure (SMILES): c1ccc(-c2nc(CNc3nccc(NC4CCCCC4)n3)cs2)cc1
IC50 [1]: 28.2 µM | IC50 at 72 h [2]: 10.8 µM | IC50 (JIMT-1): 19.4 µM | IC50 [3]: 11.6 µM

IC50 (SK-OV-3): 21.4 µM | IC50 (MDA-MB-231): 14.6 µM
Structure (SMILES): c1ccc(-c2nc(CNc3nccc(N4CCCCC4)n3)cs2)cc1
IC50 [1]: 48.3 µM | IC50 at 72 h [2]: 12.3 µM | IC50 (JIMT-1): 21.9 µM | IC50 [3]: 8.39 µM
